Assay results: patent publication US11241428B2, “Heteroaryl amide derivatives as selective inhibitors of histone deacetylases 1 and/or 2(HDAC1-2)” (Medibiofarma, S.L., priority 2017, dated 2022)

Experiments:
[1] = molecular target: HDAC2 (Homo sapiens (Human), UniProt Q92769); experiment: biochemical HDAC assay (Reaction Biology Corp.), HDAC2; details: fluorogenic peptide RHKK(Ac)AMC; 10-dose, 3-fold dilution from 10 μM
Procedure: (§1) The inhibitory activities of compounds of present invention were determined using biochemical HDAC assays (Reaction Biology Corp. biochemical assay services). Compound with indicated doses was tested in the biochemical assays of HDAC 1, HDAC2, HDAC3, HDAC4, HDAC5, HDAC6, HDAC7, HDAC 8, HDAC9, HDAC10, and HDAC11 enzyme.
(§2) Compounds were tested in singlicate 10-dose IC50 mode with 3-fold serial dilution starting at 10 μM against 11 HDACs. HDAC reference compounds Trichostatin A (TSA) and TMP269 were tested in a 10-dose IC50 with 3-fold serial dilution starting at 10 μM.
(§3) Substrate for HDAC1,2,3,6,10: Fluorogenic peptide from p53 residues 379-382 (RHKK(Ac)AMC). Substrate for HDAC4,5,7,9, and 11: Fluorogenic HDAC Class2a Substrate (Trifluoroacetyl Lysine). Substrate for HDAC 8: Fluorogenic peptide from p53 residues 379-382 (RHK(Ac)K(Ac)AMC).
(§4) General Reaction Procedure: (Standard IC50 determination) • a. 2× enzyme was added to wells of reaction plate except to No Enzyme (No En) control wells. Add buffer in No En wells. • b. Compounds to be tested in 100% DMSO were added to the enzyme mixture by Acoustic technology (Echo550; nanoliter range). The mixture was spinned down and preincubated. • c. 2× Substrate Mixture (Fluorogenic HDAC Substrate and co-factor (500 μM of Nicotinamide adenine dinucleotide (NAD<+>) in all Sirt assay) were added to all reaction wells to initiate the reaction. The plates were spinned and shaken. • d. The plates were incubated for 1-2 hr. at 30° C. with seal. • e. Developer with Trichostatin A (or TMP269 or NAD<+>) was added to stop the reaction and to generate fluorescent color. • f. Fluorescence was read (excitatory, 360; emission, 460) using the EnVision Multilabel Plate Reader (Perkin Elmer) • g. Endpoint reading was taken for analysis after the development reaches plateau.
(§5) Data Analysis: The percentages of enzyme activity (relative to DMSO controls) and IC50 values were calculated using the GraphPad Prism 4 program based on a sigmoidal dose-response equation. The blank (DMSO) value was entered as 1.00E-12 of concentration for curve fitting.

[2] = molecular target: HDAC10 (Homo sapiens (Human), UniProt Q969S8); experiment: biochemical HDAC assay (Reaction Biology Corp.), HDAC10; details: fluorogenic peptide RHKK(Ac)AMC; 10-dose, 3-fold dilution from 10 μM
Chain of HDAC10 (Q969S8 whole entry): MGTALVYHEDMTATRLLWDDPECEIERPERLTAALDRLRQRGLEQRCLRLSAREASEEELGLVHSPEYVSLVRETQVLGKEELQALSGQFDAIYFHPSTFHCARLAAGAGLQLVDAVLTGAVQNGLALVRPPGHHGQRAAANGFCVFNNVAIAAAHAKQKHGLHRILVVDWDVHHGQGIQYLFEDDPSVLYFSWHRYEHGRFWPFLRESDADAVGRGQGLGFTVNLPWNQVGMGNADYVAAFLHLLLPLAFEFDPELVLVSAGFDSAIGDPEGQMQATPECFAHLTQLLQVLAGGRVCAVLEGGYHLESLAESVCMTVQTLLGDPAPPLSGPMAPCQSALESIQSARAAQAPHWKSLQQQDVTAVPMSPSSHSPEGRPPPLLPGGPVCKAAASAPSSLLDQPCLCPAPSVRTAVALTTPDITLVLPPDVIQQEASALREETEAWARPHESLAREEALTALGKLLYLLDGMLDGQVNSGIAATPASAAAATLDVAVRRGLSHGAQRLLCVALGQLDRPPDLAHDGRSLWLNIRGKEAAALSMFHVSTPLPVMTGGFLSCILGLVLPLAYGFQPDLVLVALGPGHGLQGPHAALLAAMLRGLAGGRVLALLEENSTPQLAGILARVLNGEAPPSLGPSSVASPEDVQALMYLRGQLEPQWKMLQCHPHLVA
Procedure: as §1, §2, §3, §4, §5

[3] = molecular target: HDAC 1 (Homo sapiens (Human), UniProt Q13547); experiment: biochemical HDAC assay (Reaction Biology Corp.), HDAC1; details: fluorogenic peptide RHKK(Ac)AMC; 10-dose, 3-fold dilution from 10 μM
Chain of HDAC 1 (Q13547 whole entry, the tested form may be a part): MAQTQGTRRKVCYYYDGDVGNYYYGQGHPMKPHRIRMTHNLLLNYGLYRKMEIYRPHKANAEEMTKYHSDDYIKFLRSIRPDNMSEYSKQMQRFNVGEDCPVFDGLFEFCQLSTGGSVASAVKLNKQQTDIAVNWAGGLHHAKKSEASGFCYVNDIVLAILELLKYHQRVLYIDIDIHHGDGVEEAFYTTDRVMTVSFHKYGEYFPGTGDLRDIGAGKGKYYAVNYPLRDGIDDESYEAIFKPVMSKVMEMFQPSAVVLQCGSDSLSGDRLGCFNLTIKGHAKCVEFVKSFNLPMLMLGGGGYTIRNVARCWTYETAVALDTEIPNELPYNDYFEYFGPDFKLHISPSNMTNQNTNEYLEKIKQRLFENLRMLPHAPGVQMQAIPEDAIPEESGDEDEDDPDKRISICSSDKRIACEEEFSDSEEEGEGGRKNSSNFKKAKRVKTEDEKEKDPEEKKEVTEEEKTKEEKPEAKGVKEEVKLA
Procedure: The inhibitory activities of compounds of present invention were determined using biochemical HDAC assays (Reaction Biology Corp. biochemical assay services). Compound with indicated doses was tested in the biochemical assays of HDAC 1, HDAC2, HDAC3, HDAC4, HDAC5, HDAC6, HDAC7, HDAC 8, HDAC9, HDAC10, and HDAC11 enzyme. Compounds were tested in singlicate 10-dose IC50 mode with 3-fold serial dilution starting at 10 μM against 11 HDACs. HDAC reference compounds Trichostatin A (TSA) and TMP269 were tested in a 10-dose IC50 with 3-fold serial dilution starting at 10 μM. Substrate for HDAC1,2,3,6,10: Fluorogenic peptide from p53 residues 379-382 (RHKK(Ac)AMC). Substrate for HDAC4,5,7,9, and 11: Fluorogenic HDAC Class2a Substrate (Trifluoroacetyl Lysine). Substrate for HDAC 8: Fluorogenic peptide from p53 residues 379-382 (RHK(Ac)K(Ac)AMC). General Reaction Procedure: (Standard IC50 determination) • a. 2× enzyme was added to wells of reaction plate except to No Enzyme (No En) control wells. Add buffer in No En wells. • b. Compounds to be tested in 100% DMSO were added to the enzyme mixture by Acoustic technology (Echo550; nanoliter range). The mixture was spinned down and preincubated. • c. 2× Substrate Mixture (Fluorogenic HDAC Substrate and co-factor (500 μM of Nicotinamide adenine dinucleotide (NAD<+>) in all Sirt assay) were added to all reaction wells to initiate the reaction. The plates were spinned and shaken. • d. The plates were incubated for 1-2 hr. at 30° C. with seal. • e. Developer with Trichostatin A (or TMP269 or NAD<+>) was added to stop the reaction and to generate fluorescent color. • f. Fluorescence was read (excitatory, 360; emission, 460) using the EnVision Multilabel Plate Reader (Perkin Elmer) • g. Endpoint reading was taken for analysis after the development reaches plateau. Data Analysis: The percentages of enzyme activity (relative to DMSO controls) and IC50 values were calculated using the GraphPad Prism 4 program based on a sigmoidal dose-response equation. The blank (DMSO) value was entered as 1.00E-12 of concentration for curve fitting.

[4] = molecular target: HDAC3 (Homo sapiens (Human), UniProt O15379); experiment: biochemical HDAC assay (Reaction Biology Corp.), HDAC3; details: fluorogenic peptide RHKK(Ac)AMC; 10-dose, 3-fold dilution from 10 μM
Chain of HDAC3 (O15379 whole entry): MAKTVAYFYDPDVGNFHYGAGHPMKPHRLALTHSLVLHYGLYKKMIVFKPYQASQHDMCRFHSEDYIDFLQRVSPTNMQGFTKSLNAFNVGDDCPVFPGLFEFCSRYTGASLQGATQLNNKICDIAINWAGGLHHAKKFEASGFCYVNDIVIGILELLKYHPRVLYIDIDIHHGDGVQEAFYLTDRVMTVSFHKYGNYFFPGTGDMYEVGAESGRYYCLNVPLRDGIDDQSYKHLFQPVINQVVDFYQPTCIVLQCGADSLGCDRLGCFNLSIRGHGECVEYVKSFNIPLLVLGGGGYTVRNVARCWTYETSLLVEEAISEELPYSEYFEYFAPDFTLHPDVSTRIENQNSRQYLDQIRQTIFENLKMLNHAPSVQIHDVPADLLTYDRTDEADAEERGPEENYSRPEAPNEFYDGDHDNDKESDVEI
Chain of HDAC3 (Q9Y618 395-489 partner): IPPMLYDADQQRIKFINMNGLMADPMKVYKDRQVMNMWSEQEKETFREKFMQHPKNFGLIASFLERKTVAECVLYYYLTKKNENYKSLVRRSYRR
Procedure: as §1, §2, §3, §4, §5

[5] = molecular target: HDAC8 (Homo sapiens (Human), UniProt Q9BY41); experiment: biochemical HDAC assay (Reaction Biology Corp.), HDAC8; details: fluorogenic peptide RHK(Ac)K(Ac)AMC; 10-dose, 3-fold dilution from 10 μM
Chain of HDAC8 (Q9BY41 whole entry): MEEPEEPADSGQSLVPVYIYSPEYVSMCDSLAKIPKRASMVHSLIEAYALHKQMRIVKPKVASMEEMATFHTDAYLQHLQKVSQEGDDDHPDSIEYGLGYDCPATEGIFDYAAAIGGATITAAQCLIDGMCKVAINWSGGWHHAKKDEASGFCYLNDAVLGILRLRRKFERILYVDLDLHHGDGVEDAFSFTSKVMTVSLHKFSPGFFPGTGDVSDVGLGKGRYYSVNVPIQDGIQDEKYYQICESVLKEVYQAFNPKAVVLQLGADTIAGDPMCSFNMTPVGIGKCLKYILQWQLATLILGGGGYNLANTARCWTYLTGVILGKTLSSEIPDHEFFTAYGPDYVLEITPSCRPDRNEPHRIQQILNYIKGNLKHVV
Procedure: as §1, §2, §3, §4, §5

[6] = molecular target: HDAC6 (Homo sapiens (Human), UniProt Q9UBN7); experiment: biochemical HDAC assay (Reaction Biology Corp.), HDAC6; details: fluorogenic peptide RHKK(Ac)AMC; 10-dose, 3-fold dilution from 10 μM
Chain of HDAC6 (Q9UBN7 whole entry): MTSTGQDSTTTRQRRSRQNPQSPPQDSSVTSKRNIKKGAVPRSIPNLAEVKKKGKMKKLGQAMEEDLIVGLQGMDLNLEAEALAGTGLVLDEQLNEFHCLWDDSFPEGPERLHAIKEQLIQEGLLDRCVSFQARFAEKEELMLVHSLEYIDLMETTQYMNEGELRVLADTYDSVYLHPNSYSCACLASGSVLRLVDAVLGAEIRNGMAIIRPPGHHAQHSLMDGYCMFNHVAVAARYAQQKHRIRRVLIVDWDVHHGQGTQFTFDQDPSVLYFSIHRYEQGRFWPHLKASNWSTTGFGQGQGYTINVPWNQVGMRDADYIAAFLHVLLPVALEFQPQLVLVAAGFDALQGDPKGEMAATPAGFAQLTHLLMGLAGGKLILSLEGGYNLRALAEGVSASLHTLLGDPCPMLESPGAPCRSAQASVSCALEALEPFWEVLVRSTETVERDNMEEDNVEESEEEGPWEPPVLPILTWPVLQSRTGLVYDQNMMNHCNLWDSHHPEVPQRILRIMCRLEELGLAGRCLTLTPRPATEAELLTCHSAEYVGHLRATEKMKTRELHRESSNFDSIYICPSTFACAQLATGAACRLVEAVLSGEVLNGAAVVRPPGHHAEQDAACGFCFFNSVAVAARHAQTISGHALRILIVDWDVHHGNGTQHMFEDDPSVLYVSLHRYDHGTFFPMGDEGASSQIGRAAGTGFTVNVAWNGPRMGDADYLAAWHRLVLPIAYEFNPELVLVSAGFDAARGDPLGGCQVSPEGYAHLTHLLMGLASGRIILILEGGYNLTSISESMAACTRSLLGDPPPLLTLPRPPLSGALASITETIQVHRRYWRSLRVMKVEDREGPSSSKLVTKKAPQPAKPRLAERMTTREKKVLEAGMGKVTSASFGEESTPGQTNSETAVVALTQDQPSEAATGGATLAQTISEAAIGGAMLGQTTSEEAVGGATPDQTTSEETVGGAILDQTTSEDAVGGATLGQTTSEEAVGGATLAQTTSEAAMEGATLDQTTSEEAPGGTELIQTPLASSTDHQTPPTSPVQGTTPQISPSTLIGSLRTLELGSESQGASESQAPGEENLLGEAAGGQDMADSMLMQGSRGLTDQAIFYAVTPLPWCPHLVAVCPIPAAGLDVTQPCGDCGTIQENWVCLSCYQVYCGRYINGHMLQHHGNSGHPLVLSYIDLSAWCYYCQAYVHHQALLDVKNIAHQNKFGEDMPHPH
Procedure: as §1, §2, §3, §4, §5

Chain of HDAC2 (Q92769 whole entry): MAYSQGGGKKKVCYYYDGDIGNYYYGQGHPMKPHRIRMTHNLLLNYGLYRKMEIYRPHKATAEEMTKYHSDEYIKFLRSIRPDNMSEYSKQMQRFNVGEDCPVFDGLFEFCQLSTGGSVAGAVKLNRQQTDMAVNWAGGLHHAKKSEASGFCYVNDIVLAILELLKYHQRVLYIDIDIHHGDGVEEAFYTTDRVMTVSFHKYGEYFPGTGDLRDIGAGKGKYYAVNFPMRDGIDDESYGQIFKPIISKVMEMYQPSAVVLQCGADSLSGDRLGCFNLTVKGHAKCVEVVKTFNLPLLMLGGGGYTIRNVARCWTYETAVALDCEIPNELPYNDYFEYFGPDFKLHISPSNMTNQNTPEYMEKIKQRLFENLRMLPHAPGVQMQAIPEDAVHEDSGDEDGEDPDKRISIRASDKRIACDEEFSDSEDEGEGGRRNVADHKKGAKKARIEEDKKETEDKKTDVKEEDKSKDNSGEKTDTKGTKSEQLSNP

| Molecule | IC50 [1] | IC50 [2] | IC50 [3] | IC50 [4] | IC50 [5] | IC50 [6] |
| --- | --- | --- | --- | --- | --- | --- |
| Nc1ccc(-c2ccc(F)cc2)nc1NC(=O)c1cccnc1 [Example 3, N-(3-amino-6-(4-fluorophenyl)pyridin-2-yl)nicotinamide] | < 200 nM | – | – | – | – | – |
| Nc1ccc(-c2ccc(F)cc2)nc1NC(=O)c1cnc(N2CCOCC2)nc1 [Example 14, N-(3-amino-6-(4-fluorophenyl)pyridin-2-yl)-2-morpholinopyrimidine-5-carboxamide] | < 200 nM | – | – | – | – | – |
| N#Cc1cccc(-c2ccc(C(=O)Nc3nc(-c4ccc(F)cc4)ccc3N)cn2)c1 [Example 22, N-(3-amino-6-(4-fluorophenyl)pyridin-2-yl)-6-(3-cyanophenyl)nicotinamide] | 200 to 1000 nM | – | – | – | – | – |
| Nc1ccc(-c2ccccc2)nc1NC(=O)c1cnc(NC2CC2)nc1 [Example 16, N-(3-amino-6-phenylpyridin-2-yl)-2-(cyclopropylamino)pyrimidine-5-carboxamide] | < 200 nM | – | – | – | – | – |
| COc1ccc(-c2ccc(N)c(NC(=O)c3ccc(N4CCN(C)CC4)nc3)n2)cc1 [Example 7, N-(3-amino-6-(4-methoxyphenyl)pyridin-2-yl)-6-(4-methylpiperazin-1-yl)nicotinamide] | 200 to 1000 nM | – | – | – | – | – |
| Nc1ccc(-c2ccc(F)cc2)nc1NC(=O)c1ccc(-c2cccnc2)nc1 [Example 21, N-(3-amino-6-(4-fluorophenyl)pyridin-2-yl)-[2,3′-bipyridine]-5-carboxamide] | 200 to 1000 nM | – | – | – | – | – |
| CN1CCN(CCNc2ccc(C(=O)Nc3nc(-c4ccc(F)cc4)ccc3N)cn2)CC1 [Example 30, N-(3-amino-6-(4-fluorophenyl)pyridin-2-yl)-6-((2-(4-methylpiperazin-1-yl)ethyl)amino)nicotinamide] | < 200 nM | – | – | – | – | – |
| CN1CCN(c2ncc(C(=O)Nc3nc(-c4ccc(F)cc4)ccc3N)cn2)CC1 [Example 15, N-(3-amino-6-(4-fluorophenyl)pyridin-2-yl)-2-(4-methylpiperazin-1-yl)pyrimidine-5-carboxamide] | < 200 nM | – | – | – | – | – |
| Nc1ccc(-c2ccccc2)nc1NC(=O)c1cccnc1 [Example 2, N-(3-amino-6-phenylpyridin-2-yl)nicotinamide] | < 200 nM | – | – | – | – | – |
| CN1CCN(c2ncc(C(=O)Nc3nc(-c4ccccc4)ccc3N)cn2)CC1 [Example 10, N-(3-amino-6-phenylpyridin-2-yl)-2-(4-methylpiperazin-1-yl)pyrimidine-5-carboxamide] | < 200 nM | – | – | – | – | – |
| Nc1ccc(-c2ccc(F)cc2)nc1NC(=O)c1ccc(N2CCOCC2)nc1 [Example 5, N-(3-amino-6-(4-fluorophenyl)pyridin-2-yl)-6-morpholinonicotinamide] | < 200 nM | 1000 to 50000 nM | < 200 nM | ≥ 50000 nM | ≥ 50000 nM | – |
| Nc1ccc(-c2ccc(F)cc2)nc1NC(=O)c1ccc(N2CCC(N)CC2)nc1 [Example 27, N-(3-amino-6-(4-fluorophenyl)pyridin-2-yl)-6-(4-aminopiperidin-1-yl)nicotinamide] | < 200 nM | 1000 to 50000 nM | < 200 nM | ≥ 50000 nM | – | 1000 to 50000 nM |
| N-(3-amino-6-(4-fluorophenyl)pyridin-2-yl)-6-(4-methylpiperazin-1-yl)nicotinamide [Example 13] | < 200 nM | – | – | – | – | – |
| CN1CCN(c2ccc(C(=O)Nc3nc(-c4ccc(F)c(F)c4)ccc3N)cn2)CC1 [Example 9, N-(3-amino-6-(3,4-difluorophenyl)pyridin-2-yl)-6-(4-methylpiperazin-1-yl)nicotinamide] | 200 to 1000 nM | – | – | – | – | – |
| CN1CCN(c2ccc(C(=O)Nc3nc(-c4ccccc4)ccc3N)cn2)CC1 [Example 1, N-(3-amino-6-phenylpyridin-2-yl)-6-(4-methylpiperazin-1-yl)nicotinamide] | < 200 nM | – | – | – | – | – |
| CN1CCN(c2ccc(C(=O)Nc3nc(-c4ccc(F)cc4)ccc3N)cn2)CC1 [Example 6, N-(3-amino-6-(4-fluorophenyl)pyridin-2-yl)-6-(4-methylpiperazin-1-yl)nicotinamide] | < 200 nM | 1000 to 50000 nM | < 200 nM | ≥ 50000 nM | ≥ 50000 nM | ≥ 50000 nM |
| Nc1ccc(-c2ccc(F)cc2)nc1NC(=O)c1cnc(NC2CC2)nc1 [Example 17, N-(3-amino-6-(4-fluorophenyl)pyridin-2-yl)-2-(cyclopropylamino)pyrimidine-5-carboxamide] | < 200 nM | ≥ 50000 nM | 1000 to 50000 nM | ≥ 50000 nM | – | – |
| CN1CCN(c2ccc(C(=O)Nc3nc(-c4ccncc4)ccc3N)cn2)CC1 [Example 8, N-(5-amino-[2,4′-bipyridin]-6-yl)-6-(4-methylpiperazin-1-yl)nicotinamide] | 200 to 1000 nM | – | – | – | – | – |
| CN1CCN(c2ccc(C(=O)Nc3nc(-c4cccs4)ccc3N)cn2)CC1 [Example 29, N-(3-amino-6-(thiophen-2-yl)pyridin-2-yl)-6-(4-methylpiperazin-1-yl)nicotinamide] | < 200 nM | 1000 to 50000 nM | < 200 nM | 1000 to 50000 nM | – | 1000 to 50000 nM |
| Nc1ccc(-c2ccc(F)cc2)nc1NC(=O)c1ccc(N2CCNCC2)nc1 [Example 25, N-(3-amino-6-(4-fluorophenyl)pyridin-2-yl)-6-(piperazin-1-yl)nicotinamide] | < 200 nM | 1000 to 50000 nM | 200 to 1000 nM | ≥ 50000 nM | ≥ 50000 nM | 1000 to 50000 nM |
| Nc1ccc(-c2ccccc2)nc1NC(=O)c1ccc(N2CCOCC2)nc1 [Example 4, N-(3-amino-6-phenylpyridin-2-yl)-6-morpholinonicotinamide] | < 200 nM | – | – | – | – | – |
